Assay results taken from PubChem BioAssay (NCI).
Values joined by “and” are separate entries in the source; they are usually repeats but may differ in a detail not shown here. Equal entries are not always repeated.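 Each compound was tested at five concentrations against cells in 96-well plates for 48 hours. GI50: concentration for 50% inhibition of growth. TGI: total growth inhibition.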

Assays:
Assay in all cases: NCI tumour cell line growth inhibition, 48 h
P388/ADR leukemia = system: P388/ADR leukemia
SW-620 colon = system: SW-620 colon
HOP-92 NSCLC = system: HOP-92 NSCLC
HL-60(TB) leukemia = system: HL-60(TB) leukemia
XF 498 CNS = system: XF 498 CNS
KM12 colon = system: KM12 colon
KM20L2 colon = system: KM20L2 colon
A498 renal = system: A498 renal
DMS 114 small cell lung = system: DMS 114 small cell lung
SF-268 CNS = system: SF-268 CNS
SN12C renal = system: SN12C renal
NCI/ADR-RES ovarian = system: NCI/ADR-RES ovarian
NCI-H226 lung = system: NCI-H226 lung
SN12K1 renal = system: SN12K1 renal
U251 CNS = system: U251 CNS
A549 NSCLC = system: A549 NSCLC
M19-MEL melanoma = system: M19-MEL melanoma
UACC-257 melanoma = system: UACC-257 melanoma
NCI-H460 lung = system: NCI-H460 lung
UACC-62 melanoma = system: UACC-62 melanoma
K-562 leukemia = system: K-562 leukemia
SK-OV-3 ovarian = system: SK-OV-3 ovarian
SNB-19 CNS = system: SNB-19 CNS
SNB-75 CNS = system: SNB-75 CNS
HCC-2998 colon = system: HCC-2998 colon
DLD-1 colon = system: DLD-1 colon
RPMI-8226 leukemia = system: RPMI-8226 leukemia
OVCAR-5 ovarian = system: OVCAR-5 ovarian
EKVX NSCLC = system: EKVX NSCLC
SK-MEL-2 melanoma = system: SK-MEL-2 melanoma
LOX IMVI melanoma = system: LOX IMVI melanoma
UO-31 renal = system: UO-31 renal
SF-539 CNS = system: SF-539 CNS
RXF 393 renal = system: RXF 393 renal
HOP-18 NSCLC = system: HOP-18 NSCLC
CAKI-1 renal = system: CAKI-1 renal
OVCAR-4 ovarian = system: OVCAR-4 ovarian
OVCAR-3 ovarian = system: OVCAR-3 ovarian
SK-MEL-28 melanoma = system: SK-MEL-28 melanoma
NCI-H23 lung = system: NCI-H23 lung
SNB-78 CNS = system: SNB-78 CNS
DMS 273 small cell lung = system: DMS 273 small cell lung
HCT-116 colon = system: HCT-116 colon
NCI-H522 lung = system: NCI-H522 lung
SF-295 CNS = system: SF-295 CNS
P388 leukemia = system: P388 leukemia
HT29 colon = system: HT29 colon
MCF7 breast = system: MCF7 breast
MOLT-4 leukemia = system: MOLT-4 leukemia
HCT-15 colon = system: HCT-15 colon
CCRF-CEM leukemia = system: CCRF-CEM leukemia
IGROV1 ovarian = system: IGROV1 ovarian
OVCAR-8 ovarian = system: OVCAR-8 ovarian
SK-MEL-5 melanoma = system: SK-MEL-5 melanoma
COLO 205 colon = system: COLO 205 colon
HOP-62 NSCLC = system: HOP-62 NSCLC
HS 578T breast = system: HS 578T breast
BT-549 breast = system: BT-549 breast
MDA-N = system: MDA-N
DU-145 prostate = system: DU-145 prostate
MDA-MB-231 breast = system: MDA-MB-231 breast
MALME-3M melanoma = system: MALME-3M melanoma
T-47D breast = system: T-47D breast
M14 melanoma = system: M14 melanoma
TK-10 renal = system: TK-10 renal
ACHN renal = system: ACHN renal
LXFL 529 NSCLC = system: LXFL 529 NSCLC
PC-3 prostate = system: PC-3 prostate
786-0 renal = system: 786-0 renal
MDA-MB-435 = system: MDA-MB-435

CCCCC(C)C1CCC2(C)C=CC(=O)C(C)=C2C1O (configuration not stated)
TGI (P388/ADR leukemia): > 100000 nM
TGI (SW-620 colon): > 100000 nM
TGI (HOP-92 NSCLC): > 100000 nM
TGI (HL-60(TB) leukemia): > 100000 nM
TGI (XF 498 CNS): > 100000 nM
TGI (KM12 colon): > 100000 nM
TGI (KM20L2 colon): > 100000 nM
TGI (A498 renal): > 100000 nM
TGI (DMS 114 small cell lung): > 100000 nM
TGI (SF-268 CNS): > 100000 nM
TGI (SN12C renal): > 100000 nM
TGI (NCI/ADR-RES ovarian): > 100000 nM
TGI (NCI-H226 lung): > 100000 nM
TGI (SN12K1 renal): > 100000 nM
TGI (U251 CNS): > 100000 nM
TGI (A549 NSCLC): > 100000 nM
TGI (M19-MEL melanoma): > 100000 nM
TGI (UACC-257 melanoma): > 100000 nM
TGI (NCI-H460 lung): > 100000 nM
TGI (UACC-62 melanoma): > 100000 nM
TGI (K-562 leukemia): > 100000 nM
TGI (SK-OV-3 ovarian): > 100000 nM
TGI (SNB-19 CNS): > 100000 nM
TGI (SNB-75 CNS): > 100000 nM
TGI (HCC-2998 colon): > 100000 nM
TGI (DLD-1 colon): > 100000 nM
TGI (RPMI-8226 leukemia): > 100000 nM
TGI (OVCAR-5 ovarian): > 100000 nM
TGI (EKVX NSCLC): > 100000 nM
TGI (SK-MEL-2 melanoma): > 100000 nM
TGI (LOX IMVI melanoma): > 100000 nM
TGI (UO-31 renal): > 100000 nM
TGI (SF-539 CNS): > 100000 nM
TGI (RXF 393 renal): > 100000 nM
TGI (HOP-18 NSCLC): > 100000 nM
TGI (CAKI-1 renal): > 100000 nM
TGI (OVCAR-4 ovarian): > 100000 nM
TGI (OVCAR-3 ovarian): > 100000 nM
TGI (SK-MEL-28 melanoma): > 100000 nM
TGI (NCI-H23 lung): > 100000 nM
TGI (SNB-78 CNS): > 100000 nM
TGI (DMS 273 small cell lung): > 100000 nM
TGI (HCT-116 colon): > 100000 nM
TGI (NCI-H522 lung): > 100000 nM
TGI (SF-295 CNS): > 100000 nM
TGI (P388 leukemia): > 100000 nM
TGI (HT29 colon): > 100000 nM
TGI (MCF7 breast): > 100000 nM
TGI (MOLT-4 leukemia): > 100000 nM
TGI (HCT-15 colon): > 100000 nM
TGI (CCRF-CEM leukemia): > 100000 nM
TGI (IGROV1 ovarian): > 100000 nM
TGI (OVCAR-8 ovarian): > 100000 nM
TGI (SK-MEL-5 melanoma): > 100000 nM
TGI (COLO 205 colon): > 100000 nM
TGI (HOP-62 NSCLC): > 100000 nM

CC[C@H]1CN2CCc3cc(OC)c(OC)cc3[C@@H]2C[C@@H]1C[C@H]1NCCc2cc(O)c(OC)cc21
GI50 (P388/ADR leukemia): 60.9 nM
TGI (P388/ADR leukemia): 29600 nM
GI50 (HS 578T breast): 13.8 nM
TGI (HS 578T breast): 53.9 nM
TGI (SW-620 colon): 58.5 nM and < 21.2 nM and 190 nM
TGI (HOP-92 NSCLC): 74.2 nM and < 17.6 nM
TGI (HL-60(TB) leukemia): 40.8 nM and 31 nM
GI50 (BT-549 breast): 42.2 nM and 48.5 nM
TGI (BT-549 breast): 298 nM
GI50 (XF 498 CNS): 25 nM
TGI (XF 498 CNS): 38.8 nM
TGI (KM20L2 colon): 30.2 nM and 136 nM
GI50 (A498 renal): 16.5 nM and 25 nM
TGI (A498 renal): 46.1 nM and 58.3 nM
TGI (DMS 114 small cell lung): 24.7 nM and 37.3 nM
GI50 (MDA-N): 12.7 nM
TGI (MDA-N): 35.4 nM and 141 nM
TGI (SN12C renal): 78.7 nM and 552 nM
TGI (NCI/ADR-RES ovarian): > 100000 nM and 10700 nM
TGI (NCI-H226 lung): 59.3 nM and 28.5 nM
GI50 (SN12K1 renal): 25 nM
TGI (SN12K1 renal): 191 nM
TGI (A549 NSCLC): 65.2 nM and 52.7 nM and 355 nM
GI50 (DU-145 prostate): 23.3 nM
TGI (DU-145 prostate): 63.7 nM and 137 nM
TGI (M19-MEL melanoma): 49.2 nM and 17.8 nM and 87.6 nM
GI50 (MDA-MB-231 breast): 9.01 nM
TGI (UACC-257 melanoma): 104 nM and 346 nM
TGI (NCI-H460 lung): 58.6 nM and 65.1 nM and 186 nM
TGI (UACC-62 melanoma): 72.5 nM and 24.7 nM and 105 nM
TGI (K-562 leukemia): 2650 nM
TGI (MALME-3M melanoma): 79.5 nM and 355 nM and 265 nM
TGI (SNB-19 CNS): 97.7 nM and 27.1 nM
GI50 (T-47D breast): 22 nM
TGI (T-47D breast): 77.6 nM
GI50 (SNB-75 CNS): 15.5 nM and 25 nM
TGI (SNB-75 CNS): 73.5 nM and 147 nM and 94.4 nM
TGI (HCC-2998 colon): 48.4 nM and 47.2 nM
TGI (DLD-1 colon): 45.4 nM and 356 nM
TGI (RPMI-8226 leukemia): 77.9 nM and 54.2 nM
GI50 (M14 melanoma): 7.87 nM
TGI (M14 melanoma): 22.2 nM and 15 nM
GI50 (TK-10 renal): 27.8 nM and < 12.8 nM
TGI (TK-10 renal): 64.4 nM
TGI (OVCAR-5 ovarian): 75.1 nM and 503 nM
GI50 (ACHN renal): 22.1 nM and < 11.5 nM
TGI (ACHN renal): 75.8 nM
TGI (EKVX NSCLC): 77.9 nM and 34.4 nM and 32.2 nM
TGI (SK-MEL-2 melanoma): 49.3 nM and 29.4 nM and 53.2 nM
GI50 (LOX IMVI melanoma): 4.37 nM
TGI (LOX IMVI melanoma): 13.4 nM
TGI (UO-31 renal): 150 nM and 1170 nM
GI50 (LXFL 529 NSCLC): 11.8 nM
TGI (SF-539 CNS): 64.8 nM and < 23.7 nM and 51.1 nM
TGI (RXF 393 renal): 51.8 nM and 71.7 nM
GI50 (HOP-18 NSCLC): 28.4 nM and 130 nM
TGI (HOP-18 NSCLC): 793 nM
TGI (CAKI-1 renal): 84.7 nM and 375 nM
TGI (OVCAR-3 ovarian): 77.4 nM and 287 nM
TGI (SK-MEL-28 melanoma): 67.8 nM and 48.7 nM and 266 nM
TGI (NCI-H23 lung): 58.4 nM and 115 nM
GI50 (SNB-78 CNS): 26.6 nM and 50.2 nM
GI50 (PC-3 prostate): 24.3 nM
TGI (SF-295 CNS): 67.4 nM and 38.5 nM and 153 nM
TGI (HT29 colon): 55.1 nM and 17.1 nM and 47 nM
TGI (MOLT-4 leukemia): 74 nM and 323 nM
GI50 (786-0 renal): 7.14 nM
TGI (786-0 renal): 38.1 nM
TGI (HCT-15 colon): 373 nM and 557 nM
TGI (OVCAR-8 ovarian): 51.9 nM and < 32.3 nM and 165 nM
TGI (SK-MEL-5 melanoma): 42.4 nM and 15.7 nM and 114 nM
TGI (COLO 205 colon): 18.7 nM
GI50 (MDA-MB-435): 18.3 nM
TGI (MDA-MB-435): 37.7 nM and 156 nM
GI50 (HOP-62 NSCLC): 24.5 nM and 29.4 nM
TGI (HOP-62 NSCLC): 96.7 nM and 735 nM and 130 nM
